Where “and” joins values, the source holds several entries; their conditions need not be identical. Equal entries are not always repeated.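 Each compound was tested at five concentrations against cells in 96-well plates for 48 hours. GI50: concentration for 50% inhibition of growth. TGI is the concentration that stops growth completely.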
How the values were obtained:
Experiment in all cases: DTP human tumour cell line panel, 48 h
A498 renal = tested on: A498 renal
HOP-92 NSCLC = tested on: HOP-92 NSCLC
IGROV1 ovarian = tested on: IGROV1 ovarian
K-562 leukemia = tested on: K-562 leukemia
KM12 colon = tested on: KM12 colon
OVCAR-5 ovarian = tested on: OVCAR-5 ovarian
SW-620 colon = tested on: SW-620 colon
UO-31 renal = tested on: UO-31 renal
MCF7 breast = tested on: MCF7 breast
MDA-MB-231 breast = tested on: MDA-MB-231 breast

Row | Compound | TGI (A498 renal) | TGI (HOP-92 NSCLC) [µM] | TGI (IGROV1 ovarian) | TGI (K-562 leukemia) | TGI (KM12 colon) [µM] | TGI (OVCAR-5 ovarian) [µM] | TGI (SW-620 colon) | TGI (UO-31 renal) | GI50 (A498 renal) [µM] | GI50 (IGROV1 ovarian) [µM] | TGI (MCF7 breast) [µM] | TGI (MDA-MB-231 breast) [µM] | GI50 (UO-31 renal) [µM] | GI50 (HOP-92 NSCLC) [µM] | GI50 (K-562 leukemia) [µM] | GI50 (KM12 colon) [µM] | GI50 (MCF7 breast) [µM] | GI50 (MDA-MB-231 breast) [µM] | GI50 (OVCAR-5 ovarian) [µM] | GI50 (SW-620 colon) [µM]
1 | COc1cc([C@H]2c3cc4c(cc3[C@H](NCc3ccc(F)cc3)C3COC(=O)[C@H]32)OCO4)cc(OC)c1O (stereo not given in full) | 8.02 µM | 49.5 | 34 µM | 41 µM | 15.1 | 30.9 | 21.4 µM | 14.9 µM | – | – | – | – | – | – | – | – | – | – | – | –
2 | O=C(Nc1c(Cl)cc([N+](=O)[O-])cc1Cl)C(=O)C(C(=O)c1ccncc1)C1OC(=O)c2ccccc21 (stereo not given) | > 100 µM | > 100 | > 100 µM | > 100 µM | > 100 | > 100 | > 100 µM | > 100 µM | – | – | – | – | – | – | – | – | – | – | – | –
3 | COc1cc2c(c(OC)c1OC)-c1ccc(SC)c(=O)cc1C(CC(=O)Oc1ccccc1F)C2 (stereo not given) | 6.77 µM | > 7.5 | > 7.5 µM | > 7.5 µM | 0.0493 | > 7.5 | > 7.5 µM | > 7.5 µM | – | – | – | – | – | – | – | – | – | – | – | –
4 | COc1ccc(C2NC(c3ccc(OC)cc3)C(C)C(=O)C2C)cc1 (stereo not given) | > 100 µM | > 100 | > 100 µM | > 100 µM | > 100 | 97.2 | – | > 100 µM | – | – | – | – | – | – | – | – | – | – | – | –
5 | CC(=O)O[C@H]1C(=O)[C@@]2(C)C([C@H](OC(=O)c3ccccc3)[C@]3(O)C[C@H](OC(=O)[C@H](O)[C@@H](NC(=O)c4ccc(Cl)cc4)c4ccccc4)C(C)=C1C3(C)C)C1(OC(C)=O)CO[C@@H]1C[C@@H]2O (stereo not given in full) | 25 µM and > 100 µM | – | 25 µM and 28.2 µM | > 25 µM and 12.5 µM | 25 | 25 | 25 µM and > 100 µM | 25 µM and 53.8 µM | 11.1 | 0.0134 | 25 | 25 | 4.77 | – | – | – | – | – | – | –
6 | O=C(Cc1csc2nc(-c3ccc(Br)cc3)cn12)N/N=C/c1ccccc1O | – | 14.6 | 11.5 µM | 2.95 µM | 16.8 | 31.9 | 17.2 µM | > 100 µM | – | 1.04 | > 100 | 17 | 7.16 | 2.1 | 0.0372 | 3.62 | 13.2 | 3.27 | 5.51 | 3.98
7 | Cc1cc(N(CCC#N)CCC#N)ccc1/C=C1N=C(/C=C\c2ccccc2)N(c2ccc(C(=O)O)cc2)C\1=O | > 100 µM | > 100 | > 100 µM | > 100 µM | > 100 | > 100 | > 100 µM | > 100 µM | – | – | – | – | – | – | – | – | – | – | – | –
8 | O=C(/C=N/O)Nc1cccc(Cl)c1I | > 100 µM | – | > 100 µM | > 100 µM | > 100 | > 100 | > 100 µM | 78.3 µM | – | – | – | – | – | – | – | – | – | – | – | –
9 | Cc1ccc(-n2cc(/C(N)=N/O)c3ccccc3c2=O)cc1 | – | – | > 100 µM | > 100 µM | > 100 | – | > 100 µM | > 100 µM | – | – | – | – | – | – | – | – | – | – | – | –
10 | c1ccc2c(c1)n1nnnc1c1nnnn21 | > 100 µM | > 100 | > 100 µM | > 100 µM | > 100 | > 100 | > 100 µM | > 100 µM | – | – | – | – | – | – | – | – | – | – | – | –
11 | Fc1cccc(C2ON=C(c3ccccc3)N2C23CC4CC(CC(C4)C2)C3)c1 (stereo not given) | > 10 µM | > 10 | > 10 µM | > 10 µM | > 10 | > 10 | > 10 µM | – | – | – | > 10 | > 10 | – | – | – | – | – | – | – | –
12 | COc1cc(COC(=O)N(C)[C@@H](Cc2ccccc2)C(=O)O)c([N+](=O)[O-])cc1OC | – | > 100 | > 100 µM | > 100 µM | > 100 | > 100 | > 100 µM | > 100 µM | – | – | > 100 | – | – | – | – | – | – | – | – | –
13 | O=S1(=O)CS(=O)(=O)OCCCCCO1 | > 100 µM | > 100 | > 100 µM | > 100 µM | > 100 | > 100 | > 100 µM | > 100 µM | – | – | – | – | – | – | – | – | – | – | – | –
14 | CC1(C)N=C(N)N=C(N)N1c1ccc(CCCCCCc2ccc(S(=O)(=O)F)cc2)cc1 | – | 3.15 | 30.8 µM | > 33.3 µM | – | 15 | 4.44 µM | 29.5 µM | – | – | > 32.3 | 16.5 | – | – | – | – | – | – | – | –
15 | CCOC(=O)c1cnc2c(ccc3ncccc32)c1OCC | > 100 µM | – | > 100 µM | > 100 µM | > 100 | > 100 | > 100 µM | > 100 µM | – | – | – | – | – | – | – | – | – | – | – | –
16 | O=C(CC/C(CC(=O)c1ccc(Cl)cc1)=N\O)Nc1cccc(Cl)c1 | > 100 µM | – | > 100 µM | > 100 µM | > 100 | > 100 | > 100 µM | > 100 µM | – | – | – | – | – | – | – | – | – | – | – | –
17 | COc1ccc(/C(C#N)=C2/O/C(=N/N)C(c3ccc(OC)c(OC)c3)C2=O)cc1OC (stereo not given) | – | > 100 | > 100 µM | > 100 µM | > 100 | – | > 100 µM | > 100 µM | – | – | – | – | – | – | – | – | – | – | – | –
18 | Cc1ccccc1NC(=O)C(=O)CC(=O)c1sc(-n2nc(-c3ccccc3)cc2-c2ccccc2)nc1C | > 100 µM | > 100 | > 100 µM | > 100 µM | > 100 | > 100 | > 100 µM | > 100 µM | – | – | – | – | – | – | – | – | – | – | – | –
19 | CSc1ccc2c(c1)N(CCCN(C)C)c1ccccc1S2 | 24.6 µM | 26.8 | 28 µM | 17 µM | 24.9 | 30.9 | 41.8 µM | – | – | – | 26.1 | 26.3 | – | – | – | – | – | – | – | –
20 | CCOC(=O)C(=O)Nc1nc2ccc(OC)cc2s1 | > 100 µM | > 100 | > 100 µM | > 100 µM | > 100 | > 100 | > 100 µM | > 100 µM | – | – | – | – | – | – | – | – | – | – | – | –
21 | COc1ccc(N=C2C(=O)Nc3ccc(Br)cc32)cc1 | > 100 µM | 69 | – | 33.2 µM | 29.4 | 58 | 63.8 µM | 26.5 µM | – | – | 35.2 | 35.3 | – | – | – | – | – | – | – | –
22 | CC(C)(C)OC(=O)CC(S(=O)(=O)c1ccccc1)S(=O)(=O)c1ccccc1 | 26.4 µM | – | 38.5 µM | 13.5 µM | – | 32.7 | 3.17 µM | 10.4 µM | 13.2 | 18.5 | 33 | 25.7 | 2.9 | – | 3.4 | – | 13.5 | 12 | 17.4 | 1.64
23 | CNC(=O)N(CCCCC(NC(C)=O)C(=O)NCc1ccccc1)Cc1ccccc1 (stereo not given) | > 100 µM | > 100 | > 100 µM | > 100 µM | > 100 | > 100 | > 100 µM | > 100 µM | – | – | – | – | – | – | – | – | – | – | – | –

Reference: PubChem BioAssay (NCI)
